Measurements as given in ChEMBL document CHEMBL1156124, “Assessment of the putative binding conformation of a pyrazolopyridine class of inhibitors of MAPKAPK2 using computational studies” (Eur J Med Chem, 2010).

Target: MAP kinase-activated protein kinase 2 (Homo sapiens) (UniProt P49137)
Test: Inhibition of MK2

Sequence of MAP kinase-activated protein kinase 2 (Homo sapiens) (P49137 whole entry, looked up): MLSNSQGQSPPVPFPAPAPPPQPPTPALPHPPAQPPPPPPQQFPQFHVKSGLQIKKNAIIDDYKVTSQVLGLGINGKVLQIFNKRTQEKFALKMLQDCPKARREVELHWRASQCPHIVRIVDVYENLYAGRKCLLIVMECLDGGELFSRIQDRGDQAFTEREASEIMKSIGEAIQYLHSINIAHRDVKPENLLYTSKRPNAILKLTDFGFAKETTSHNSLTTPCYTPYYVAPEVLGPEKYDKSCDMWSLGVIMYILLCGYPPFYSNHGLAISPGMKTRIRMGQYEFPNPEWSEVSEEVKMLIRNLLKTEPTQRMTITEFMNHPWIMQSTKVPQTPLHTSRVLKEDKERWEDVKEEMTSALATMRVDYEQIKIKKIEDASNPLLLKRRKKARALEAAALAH

| Structure (SMILES) | Activity |
| --- | --- |
| CCOc1ccc(Nc2c(CCO)c(N[C@@H]3CCCNC3)c(C#N)c3ccnn23)cc1 | < 0.2 µM |
| CCOc1ccc(Nc2c(C)c(OC3CCC(N)CC3)nc3ccnn23)cc1 (centres undefined) | 0.2 µM |
| Cc1c(N[C@@H]2CCCNC2)c(C#N)c2ccnn2c1NCc1nc2ccccc2s1 | < 0.2 µM |
| CCOc1ccc(Nc2c(C)c(NCCCCCCN)c(C#N)c3ccnn23)cc1 | 10 µM |
| CCOc1ccc(Nc2c(C)c(NCCCNC3CCCCC3)c(C#N)c3ccnn23)cc1 | 1 µM |
| N#Cc1c(N[C@H]2CC[C@H](N)CC2)cc(Nc2nc3ccccc3s2)n2nccc12 | 0.2 µM |
| CCOc1ccc(Nc2c(C)c(NCC3CCCCN3)c(C#N)c3ccnn23)cc1 (centres undefined) | 1 µM |
| CCOc1ccc(Nc2c(C)c(NCCC3CCCN3C)c(C#N)c3ccnn23)cc1 (centres undefined) | 10 µM |
| CCOc1ccc(Nc2c(C)c(OC3CCCNC3)nc3ccnn23)cc1 (centres undefined) | 1 µM |
| N#Cc1c(N[C@@H]2CCCNC2)cc(Nc2ccc(-c3ccccc3)cc2)n2nccc12 | 0.2 µM |
| CCOc1ccc(Nc2c(C)c(NCCC3CCCN3)c(C#N)c3ccnn23)cc1 (centres undefined) | 1 µM |
| CCOc1ccc(Nc2c(C)c(N[C@H]3CC[C@H](NCCc4ccccc4)CC3)c(C#N)c3ccnn23)cc1 | 0.2 µM |
| CCOc1ccc(Nc2c(-c3ccccc3)c(NC3CCCNC3)c(C#N)c3ccnn23)cc1 (centres undefined) | 0.2 µM |
| CCOc1ccc(Nc2c(C)c(NCCC3CCCCN3)c(C#N)c3ccnn23)cc1 (centres undefined) | 10 µM |
| CCOc1ccc(Nc2c(CC)c(N[C@@H]3CCCNC3)c(C#N)c3ccnn23)cc1 | < 0.2 µM |
| CCOc1ccc(Nc2c(CC(C)C)c(N[C@@H]3CCCNC3)c(C#N)c3ccnn23)cc1 | < 0.2 µM |
| Cc1c(N[C@@H]2CCCNC2)c(C#N)c2ccnn2c1Nc1nc2ccccc2s1 | < 0.2 µM |
| CCOc1ccc(Nc2c(C)c(NCCCCCN)c(C#N)c3ccnn23)cc1 | 0.2 µM |

| Structure (SMILES) | Activity |
| --- | --- |
| C=CCc1c(N[C@@H]2CCCNC2)c(C#N)c2ccnn2c1Nc1ccc(OCC)cc1 | < 0.2 µM |
| CCOc1ccc(Nc2c(C)c(NCC3CCCN3)c(C#N)c3ccnn23)cc1 (centres undefined) | 1 µM |
| NC(=O)n1ncc2ccccc21 | < 150 µM |
| N#Cc1c(N[C@H]2CC[C@H](N)CC2)cc(Nc2ccccc2Cl)n2nccc12 | 0.2 µM |
| CCOc1ccc(Nc2c(C)c(NCCN)c(C#N)c3ccnn23)cc1 | 0.2 µM |
| COCCOc1ccc(Nc2c(C)c(N[C@H]3CCNC3)c(C#N)c3ccnn23)cc1 | 0.2 µM |
| COCCOc1ccc(Nc2c(C)c(N[C@@H]3CCCNC3)c(C#N)c3ccnn23)cc1 | < 0.2 µM |
| CCOc1ccc(Nc2c(C)c(NCCCN)c(C#N)c3ccnn23)cc1 | 0.2 µM |
| Cc1c(N[C@H]2CC[C@H](N)CC2)c(C#N)c2ccnn2c1NOc1ccccc1 | 0.2 µM |
| CCOc1ccc(Nc2cc(N[C@@H]3CCCNC3)c(C#N)c3ccnn23)cc1 | 0.2 µM |
| CCCc1c(N[C@@H]2CCCNC2)c(C#N)c2ccnn2c1Nc1ccc(OCC)cc1 | < 0.2 µM |
| c1ccn2nccc2c1 | < 0.2 µM |
| CCOc1ccc(Nc2c(C)c(N[C@H]3CC[C@H](NCCCc4ccccc4)CC3)c(C#N)c3ccnn23)cc1 | 0.2 µM |
| CCOc1ccc(Nc2c(C)c(NC3CNCc4ccccc43)c(C#N)c3ccnn23)cc1 (centres undefined) | 1 µM |
| CCOc1ccc(Nc2c(C3CC3)c(N[C@@H]3CCCNC3)c(C#N)c3ccnn23)cc1 | 0.2 µM |
| N#Cc1c(N[C@@H]2CCCNC2)cc(Nc2ccccc2Cl)n2nccc12 | 0.2 µM |
| CCOc1ccc(Nc2c(C)c(OCCN)nc3ccnn23)cc1 | 10 µM |
| Cc1c(N[C@@H]2CCCNC2)c(C#N)c2ccnn2c1Nc1ccccc1 | < 0.2 µM |

Other lines, results leading:

| Activity | Structure (SMILES) |
| --- | --- |
| 0.2 µM | CCOc1ccc(Nc2c(C)c(N[C@H]3CC[C@H](NCc4ccccc4)CC3)c(C#N)c3ccnn23)cc1 |
| < 0.2 µM | COCCOc1ccc(Nc2c(C)c(N[C@H]3CC[C@H](N)CC3)c(C#N)c3ccnn23)cc1 |
| 10 µM | CCOc1ccc(Nc2c(C)c(N[C@@H]3CCCC[C@H]3N)c(C#N)c3ccnn23)cc1 |
| < 0.2 µM | Cc1c(N[C@H]2CC[C@H](N)CC2)c(C#N)c2ccnn2c1Nc1ccc(-c2ccccc2)cc1 |
| < 0.2 µM | CCOc1ccc(Nc2c(C)c(N[C@H]3CCCNC3)c(C#N)c3ccnn23)cc1 |
| 10 µM | CCOc1ccc(Nc2c(C)c(NC3CCCCC3N)c(C#N)c3ccnn23)cc1 (centres undefined) |
| 1 µM | CCOc1ccc(Nc2c(C)c(NCC3CCCNC3)c(C#N)c3ccnn23)cc1 (centres undefined) |
| 0.2 µM | CCOc1ccc(Nc2c(C)c(NC3CCNCC3)c(C#N)c3ccnn23)cc1 |
| 0.2 µM | CCOc1ccc(Nc2c(C)c(N[C@H]3CC[C@H](NCC4CCCCC4)CC3)c(C#N)c3ccnn23)cc1 |
| < 0.2 µM | CCOc1ccc(Nc2c(CC)c(N[C@H]3CC[C@H](N)CC3)c(C#N)c3ccnn23)cc1 |
| 1 µM | CCOc1ccc(Nc2c(C)c(NC3CCCC(N)C3)c(C#N)c3ccnn23)cc1 (centres undefined) |
| < 0.2 µM | CCOc1ccc(Nc2c(C)c(NC3CCC(N)CC3)c(C#N)c3ccnn23)cc1 (centres undefined) |
| < 0.2 µM | CCOc1ccc(Nc2c(C3CC3)c(N[C@H]3CC[C@H](N)CC3)c(C#N)c3ccnn23)cc1 |
| < 0.2 µM | CCOc1ccc(Nc2c(C(C)C)c(N[C@H]3CC[C@H](N)CC3)c(C#N)c3ccnn23)cc1 |
| 0.2 µM | CCOc1ccc(Nc2c(C)c(NC3CCC(NCc4ccccc4)CC3)c(C#N)c3ccnn23)cc1 (centres undefined) |
| 1 µM | CCOc1ccc(Nc2c(C)c(NCC3CCNC3)c(C#N)c3ccnn23)cc1 (centres undefined) |
| < 0.2 µM | CCOc1ccc(Nc2c(C)c(N[C@H]3CC[C@H](N)CC3)c(C#N)c3ccnn23)cc1 |
| < 0.2 µM | CCOc1ccc(Nc2c(C)c(N[C@H]3CC[C@H](NCC(C)C)CC3)c(C#N)c3ccnn23)cc1 |
